The values below come from patent EP4570805A1, “TRICYCLIC COMPOUNDS AND MEDICAL USE THEREOF” (Chia Tai Tianqing Pharmaceutical Group Co., Ltd., priority 2022, dated 2024).

The test has as its system Capan-1 cells. In words: Inhibitory activity for Capan-1 cell proliferation (CCK-8). Format: cell-based. The following applies: 5 days incubation. The procedure:
Capan-1 cells in a well-growing state were collected into a centrifuge tube, adjusted to a cell density of 1.5 × 10^4 cells/mL, and inoculated onto a 96-well plate (100 µL/well). […] Meanwhile, a control was set. After 5 days of incubation in the cell incubator, the assay reagent CCK-8 (manufacturer: Dojindo Laboratories, Beijing; 10 µL/well) was added. After 4 h of incubation in the cell incubator, the absorbance was measured at 450 nm on a PerkinElmer Envision microplate reader. A four-parameter analysis was performed, a dose-response curve was fitted, and IC50 was calculated.

One may read the IC50 as the point on the concentration scale where inhibition reaches its midpoint. Higher therefore signals weaker potency in that assay.

Consider `C#Cc1c(F)ccc2cc(O)cc(-c3nc4c5c(nc(OCC67CCCN6CC(F)C7)nc5c3F)N(C3CC3)C(C)CO4)c12` (single isomer, unassigned) [Example 45], for which, for the setting “Homo sapiens, CAPAN-1, 120 h”, the half-maximal inhibitory concentration (IC50) was below 100 nM. `C#Cc1c(F)ccc2cccc(-c3nc4c5c(nc(OCC67CCCN6CC(F)C7)nc5c3F)N(C(C)c3cccnc3N)C(C)CO4)c12` (single isomer, unassigned) [Example 48]: the IC50 is below 100 nM. Compound `Cc1cccc(-c2nc3c4c(nc(OCC56CCCN5CC(F)C6)nc4c2F)N(C(C)c2cccnc2N)C(C)CO3)c1C(F)(F)F` (single isomer, unassigned) [Example 55] registered an IC50 (Homo sapiens, CAPAN-1, 120 h) below 100 nM. Compound `CC(c1cccnc1N)N1c2nc(OC[C@@]34CCCN3C[C@H](F)C4)nc3c(F)c(-c4ccccc4N(C)C)nc(c23)OC[C@@H]1C` (single isomer, unassigned) [Example 57] displayed an IC50 (Homo sapiens, CAPAN-1, 120 h) below 100 nM. Same read-out and setting: for `CC(c1cccnc1N)N1c2nc(OC[C@@]34CCCN3C[C@H](F)C4)nc3c(F)c(-c4cccc5ccccc45)nc(c23)OC[C@@H]1C` (single isomer, unassigned) [Example 59] the value was below 100 nM; for `CC(c1cccnc1N)N1c2nc(OC[C@@]34CCCN3C[C@H](F)C4)nc3c(F)c(-c4ccccc4C(F)(F)F)nc(c23)OC[C@@H]1C` (single isomer, unassigned) [Example 61], below 100 nM; for `CC(c1cccnc1N)N1c2nc(OC[C@@]34CCCN3C[C@H](F)C4)nc3c(F)c(-c4cc(N)cc(Cl)c4C(F)(F)F)nc(c23)OC[C@@H]1C` (single isomer, unassigned) [Example 63], below 100 nM. On to `CC(c1cccnc1N)N1c2nc(OC[C@@]34CCCN3C[C@H](F)C4)nc3c(F)c(-c4cc(N)cc(Cl)c4C(F)(F)F)nc(c23)OC[C@@H]1C` (single isomer, unassigned) [Example 64], for which the IC50 was below 100 nM.

As for `C#Cc1c(F)ccc2cc(O)cc(-c3nc4c5c(nc(OC)nc5c3F)N(C(C)c3cccnc3N)[C@@H](C)CO4)c12` (single isomer, unassigned) [Example 65], under “Homo sapiens, CAPAN-1, 120 h”, the IC50 was below 100 nM. As for `C#Cc1c(F)ccc2cc(O)cc(-c3nc4c5c(nc(OCC6(CN7CCOCC7)CC6)nc5c3F)N(C(C)c3cccnc3N)[C@@H](C)CO4)c12` (single isomer, unassigned) [Example 70], the half-maximal inhibitory concentration (IC50) was below 100 nM.

Turning to `[2H]C([2H])(Oc1nc2c3c(nc(-c4cc(O)cc5ccc(F)c(C#C)c45)c(F)c3n1)OC[C@H](C)N2C(C)c1cccnc1N)[C@@]12CCCN1C[C@H](F)C2` (single isomer, unassigned) [Example 72], the half-maximal inhibitory concentration (IC50) was below 100 nM. In turn, `C#Cc1c(F)ccc2cc(O)cc(-c3nc4c5c(nc(OC[C@H](C)OC)nc5c3F)N(C(C)c3cccnc3N)[C@@H](C)CO4)c12` (single isomer, unassigned) [Example 73] showed an IC50 (Homo sapiens, CAPAN-1, 120 h) below 100 nM.

For the setting “Homo sapiens, CAPAN-1, 120 h”, `C#Cc1c(F)ccc2cc(O)cc(-c3nc4c5c(nc(OC[C@@H](C)OC)nc5c3F)N(C(C)c3cccnc3N)[C@@H](C)CO4)c12` (single isomer, unassigned) [Example 75] yielded an IC50 below 100 nM. Regarding `C#Cc1c(F)ccc2cc(O)cc(-c3nc4c5c(nc(OCC(C)(C)OC)nc5c3F)N(C(C)c3cccnc3N)[C@@H](C)CO4)c12` (single isomer, unassigned) [Example 77], the concentration for half-maximal inhibition (IC50) (Homo sapiens, CAPAN-1, 120 h) is below 100 nM. `CC(c1cccnc1N)N1c2nc(OC[C@@]34CCCN3C[C@H](F)C4)nc3c(F)c(-c4ccc(F)c5sc(N)c(C#N)c45)nc(c23)OC[C@@H]1C` (single isomer, unassigned) [Example 82] yielded an IC50 (Homo sapiens, CAPAN-1, 120 h) below 100 nM.

In the case of `C#Cc1c(F)ccc2cccc(-c3nc4c5c(nc(OC[C@@H]6CCCN6C)nc5c3F)N(C(C)c3cccnc3N)[C@@H](C)CO4)c12` (single isomer, unassigned) [Example 88], the IC50 is below 100 nM. `C#Cc1c(F)ccc2cc(O)cc(-c3nc4c5c(ncnc5c3F)N(C(C)c3cccnc3N)[C@@H](C)CO4)c12` (single isomer, unassigned) [Example 89] returned an IC50 (Homo sapiens, CAPAN-1, 120 h) below 100 nM. Consider `C#Cc1c(F)ccc2cc(O)cc(-c3nc4c5c(nc(OC[C@@H]6COCCN6C)nc5c3F)N(C(C)c3cccnc3N)[C@@H](C)CO4)c12` (single isomer, unassigned) [Example 91], for which the IC50 (Homo sapiens, CAPAN-1, 120 h) was below 100 nM. For the compound `C#Cc1c(F)ccc2cc(O)cc(-c3nc4c5c(nc(OC[C@@H]6COCCN6C)nc5c3F)N(C(C)c3cccnc3N)[C@@H](C)CO4)c12` (single isomer, unassigned) [Example 92], the IC50 is below 100 nM.

With `C#Cc1c(F)ccc2cc(O)cc(-c3nc4c5c(nc(OCc6nccn6C)nc5c3F)N(C(C)c3cccnc3N)[C@@H](C)CO4)c12` (single isomer, unassigned) [Example 93], the IC50 (Homo sapiens, CAPAN-1, 120 h) was below 100 nM.

Where the note is “Homo sapiens, CAPAN-1, 120 h”, `C#Cc1c(F)ccc2cc(O)cc(-c3nc4c5c(nc(OCC6(N)CC6)nc5c3F)N(C(C)c3cccnc3N)[C@@H](C)CO4)c12` (single isomer, unassigned) [Example 99] registered an IC50 below 100 nM. Still for that read-out and setting: under `C#Cc1c(F)ccc2cc(O)cc(-c3nc4c5c(nc(OC[C@@H]6CN(C)CCN6C)nc5c3F)N(C(C)c3cccnc3N)[C@@H](C)CO4)c12` (single isomer, unassigned) [Example 109] stands below 100 nM. For the setting “Homo sapiens, CAPAN-1, 120 h”, `CC(c1cccnc1N)N1c2nc(OC[C@@]34CCCN3C[C@H](F)C4)nc3c(F)c(-c4ccc(F)c5sc(N)nc45)nc(c23)OC[C@@H]1C` (single isomer, unassigned) [Example 116] yielded an IC50 below 100 nM. In turn, `CC(c1cccnc1N)N1c2nc(OC[C@@]34CCCN3C[C@H](F)C4)nc3c(F)c(-c4cccc5ccc(F)c(F)c45)nc(c23)OC[C@@H]1C` (single isomer, unassigned) [Example 120] had an IC50 (Homo sapiens, CAPAN-1, 120 h) below 100 nM. In turn, `CC(c1cccnc1N)N1c2nc(OC[C@@]34CCCN3C[C@H](F)C4)nc3c(F)c(-c4cccc(F)c4N(C)C)nc(c23)OC[C@@H]1C` (single isomer, unassigned) [Example 126] registered a 50% inhibitory concentration (IC50) (Homo sapiens, CAPAN-1, 120 h) below 100 nM.

Consider `Cc1cccc(-c2nc3c4c(nc(OC[C@@]56CCCN5C[C@H](F)C6)nc4c2F)N(C(C)c2cccnc2N)[C@@H](C)CO3)c1N(C)C` (single isomer, unassigned) [Example 128], for which, under “Homo sapiens, CAPAN-1, 120 h”, the IC50 is below 100 nM. `C#Cc1cccc2cccc(-c3nc4c5c(nc(OC[C@@]67CCCN6C[C@H](F)C7)nc5c3F)N(C(C)c3cccnc3N)[C@@H](C)CO4)c12` (single isomer, unassigned) [Example 131] yielded an IC50 below 100 nM.

For `C#Cc1c(F)ccc2cc(O)cc(-c3nc4c5c(nc(OCCCN6CCCC6)nc5c3F)N(C(C)c3cccnc3N)[C@@H](C)CO4)c12` (single isomer, unassigned) [Example 132], the IC50 (Homo sapiens, CAPAN-1, 120 h) was below 100 nM. In turn, `C#Cc1c(F)ccc2cc(O)cc(-c3nc4c5c(nc(OCCN6CCOCC6)nc5c3F)N(C(C)c3cccnc3N)[C@@H](C)CO4)c12` (single isomer, unassigned) [Example 136] had an IC50 (Homo sapiens, CAPAN-1, 120 h) below 100 nM.

Take `C#Cc1c(F)ccc2cc(O)cc(-c3nc4c5c(nc(OCCCN6CCCCC6)nc5c3F)N(C(C)c3cccnc3N)[C@@H](C)CO4)c12` (single isomer, unassigned) [Example 142]: the IC50 (Homo sapiens, CAPAN-1, 120 h) is below 100 nM.

Under “Homo sapiens, CAPAN-1, 120 h”, `C#Cc1c(F)ccc2cc(O)cc(-c3nc4c5c(nc(OCC(C)CN(C)C)nc5c3F)N(C(C)c3cccnc3N)[C@@H](C)CO4)c12` (single isomer, unassigned) [Example 144] came in with an IC50 below 100 nM.
